Results from patent publication US20230295571A1, “COMPOSITIONS AND METHODS FOR STEM CELL CHONDROGENESIS” (Washington University, priority 2020, published 2023).
Entries after “also recorded” stand apart in the source; their conditions may differ.

How the values were obtained:
Type in all cases: cell-based, human
[1] = tested on: hiPSC chondrogenic pellets; assay: Biochemical analysis of cartilaginous matrix production (GAG/DNA) in hiPSC chondrogenic pellets; conditions: 1 μM inhibitor + TGF-β3 during pellet culture, d28/d42, vs TGF-β3 or other regimens
Description: Chondrogenic differentiation. Cells dissociated at the Cp stage were resuspended at 5×10^5 cells per mL in chondrogenic medium consisting of DMEM/F-12, 1% FBS, 1% ITS+, 55 μM β-mertcaptoethanol, 100 nM dexamethasone (DEX; Sigma-Aldrich, #D4902), 1% NEAA (Gibco, #11140050), 1% P/S, 10 ng ml^−1 human transforming growth factor-beta 3 (TGF-β3; R&D Systems, #243-B3-010), 50 μg ml^−1 L-ascorbic acid 2-phosphate (ascorbate; Sigma-Aldrich, #A8960), and 40 μg ml^−1 L-Proline (proline; Sigma-Aldrich, #P5607). Cells were then centrifuged for 5 min at 300×g to form a pellet. Chondrogenic pellets were cultured at 37° C. for up to the timepoints required for various experiments.
WNT-C59 and ML329 treatment for WNT and MITF inhibition. For WNT-C59 treatment for WNT inhibition during chondrogenesis, pellets were treated with either 10 ng ml^−1 TGF-β3 (control group) or a combination of 10 ng ml^−1 TGF-β3 and 1 μM WNT-C59 in a chondrogenic medium from d0 to d42 as appropriate. […]
Biochemical analysis of cartilaginous matrix production. […] GAG content, as calculated based on the standard curve, was normalized to double-stranded DNA content to obtain the GAG/DNA ratio.

[2] = tested on: CD146/CD166+ cells at the Cp stage; assay: FACS for progenitors at the Cp stage; conditions: with BMP4, 1 μM WNT-C59 or 100 ng/ml WNT3A
Description: WNT ligands treatment during chondrogenesis. For WNT ligands treatment during chondrogenesis, pellets were treated with either 10 ng ml^−1 TGF-β3 (control group) or a combination of 10 ng ml^−1 TGF-β3 and 100 ng ml^−1 individual WNT ligand (WNT2B, WNT3A, WNT4, WNT5B, or WNT7B, all from R&D system) in chondrogenic medium from d0 to d42 as appropriate. For WNT ligands treatment during the Cp stage, cells were supplemented with either 20 ng ml^−1 BMP4 (R&D Systems, #314-BP-010) alone (control group), a combination of 20 ng ml^−1 BMP4 and 1 μM WNT-059, or a combination of 20 ng ml^−1 BMP4 and 100 ng ml^−1 WNT3A (R&D Systems, #5036-WN-010) in mesodermal differentiation medium from d7 to d12.
FACS for progenitors. […] Data were analyzed using FlowJo software (version 10.5.3).

[3] = tested on: hiPSC chondrogenic pellets; assay: RNA-FISH of d28 pellets for WNT3A, WNT4 and COL2A1; conditions: d28 pellets vs TGF-β3-treated
Description: RNA fluorescence in situ hybridization (RNA-FISH). […] Pellets were cryo-sectioned at 10 μm thick and fixed using 4% paraformaldehyde in PBS on ice for 10 min. Sample pre-treatment and RNA probe hybridization, amplification, and signal development were performed using the RNAscope Multiplex Fluorescent Reagent Kit v1 (Advanced Cell Diagnostics, #320850) following the manufacturer's instruction. Samples were imaged with multichannel confocal microscopy (Zeiss LSM 880). Tiled images with Z-stacks were taken at 20× magnification to capture the entire pellet. Maximum intensity projection, a process in which the brightest pixel (voxel) in each layer along Z direction is projected in the final 2D image, was performed using Zeiss Zen Blue (version 2.5).

Cc1cc(-c2ccc(CC(=O)Nc3ccc(-c4cccnc4)cc3)cc2)ccn1 [WNT-C59]
GAG/DNA ratio [1]: significantly increased | percentage of CD146/CD166+ cells [2]: largely decreased | COL2A1 RNA-FISH labeling [3]: more homogenous distribution; also recorded: increased | WNT3A and WNT4 expression (RNA-FISH) [3]: decreased
